From ChEMBL document CHEMBL5131432, “Novel 2,4-disubstituted quinazoline analogs as antibacterial agents with improved cytotoxicity profile: Modification of the benzenoid part” (Bioorg Med Chem Lett, 2022) come the findings set out here.

Converted amounts (≈) assume the structure as drawn. A value given as a limit tells only on which side of the number the result lay.

What all share (assay type): functional
In test [1] the test system is Staphylococcus aureus. Put plainly: Antibacterial activity against methicillin-sensitive Staphylococcus aureus Newman assessed as bacterial growth inhibition.
Test [2] relates to Staphylococcus aureus. Briefly: Antibacterial activity against methicillin-resistant Staphylococcus aureus N315 assessed as bacterial growth inhibition.
Test [3] concerns Staphylococcus aureus. Put plainly: Antibacterial activity against methicillin-resistant and vancomycin-intermediate Staphylococcus aureus Mu50 assessed as bacterial growth inhibition.
In test [4] the test system is Streptococcus pneumoniae. Put plainly: Antibacterial activity against Streptococcus pneumoniae DSM-20566 assessed as bacterial growth inhibition.
For test [5], the system named is Streptococcus pneumoniae. Briefly: Antibacterial activity against penicillin-resistant Streptococcus pneumoniae DSM-11865 assessed as bacterial growth inhibition.
Test [6] relates to Enterococcus faecium. Briefly: Antibacterial activity against Enterococcus faecium DSM-20477 assessed as bacterial growth inhibition.
The subject of test [7] is Enterococcus faecalis. Put plainly: Antibacterial activity against Enterococcus faecalis DSM-20478 assessed as bacterial growth inhibition.
Test [8] relates to Escherichia coli. Put plainly: Antibacterial activity against wild type Escherichia coli DSM-11116 assessed as bacterial growth inhibition.
In test [9] the test system is Escherichia coli. Briefly: Antibacterial activity against Escherichia coli K12 harbouring TolC-deficient mutant assessed as bacterial growth inhibition.
The test system of test [10] is Mycolicibacterium smegmatis. Put plainly: Antibacterial activity against Mycobacterium smegmatis mc2 155 assessed as bacterial growth inhibition.

For `CCCCNc1nc(SCCCC)nc2ccc(Cl)cc12`, the MIC in [1], in [2], in [3], in [4], in [5] and in test [6] was greater than 128 µg/mL throughout. For the same compound, the MIC in test [7], in test [8], in test [9] and in [10] was greater than 128 µg/mL throughout.
On to `CCCCNc1nc(SCCCC)nc2c1cnn2CCCC`, for which the MIC (usually the lowest concentration that inhibits growth of the organism) in test [1] was greater than 128 µg/mL; in [2], greater than 128 µg/mL; in test [3], greater than 128 µg/mL; in test [4], 8 µg/mL (≈ 23.8 µM); in [5] it was greater than 128 µg/mL; in test [6] it was greater than 128 µg/mL. Moreover, the MIC in [7], in [8], in test [9] and in test [10] was greater than 128 µg/mL each time.
In the case of `CCCCNc1nc(SCCCC)nc2cc(Br)ccc12`, the MIC in [1], in test [2], in test [3], in test [4], in test [5] and in test [6] was greater than 128 µg/mL each time. Moreover, the minimal inhibitory concentration (MIC) in test [7], in [8], in [9] and in test [10] was greater than 128 µg/mL each time.
For `CCCCNc1nc(SCCCC)nc2ccc(Br)cc12`, the minimum inhibitory concentration (MIC) in test [1], in test [2], in [3], in test [4], in test [5] and in test [6] was greater than 128 µg/mL throughout. Also, the MIC in test [7], in [8], in [9] and in test [10] was greater than 128 µg/mL in each case.
As to `CCCCNc1nc(SCCCC)nc2ccc(F)cc12`, the MIC in [1], in test [2], in test [3], in test [4], in test [5] and in test [6] was greater than 128 µg/mL in each case. Moreover, the MIC in test [7], in [8], in test [9] and in test [10] was greater than 128 µg/mL throughout.
`CCCCNc1nc(SCCCC)nc2cc(Cl)ccc12`: the minimal inhibitory concentration (MIC) in [1], in [2], in test [3], in test [4], in test [5] and in test [6] was greater than 128 µg/mL in each case. The minimal inhibitory concentration (MIC) in test [7], in test [8], in [9] and in [10] was greater than 128 µg/mL throughout.
For the compound `CCCCNc1nc(SC)nc2n[nH]cc12`, the MIC in [1] is 64 µg/mL (≈ 270 µM); in test [2], 64 µg/mL (≈ 270 µM); in [3], 64 µg/mL (≈ 270 µM); in [4] it was greater than 128 µg/mL; in test [5] it was greater than 128 µg/mL; in test [6], greater than 128 µg/mL. Further, the MIC in [7] is greater than 128 µg/mL; in test [8], greater than 128 µg/mL; in [9], 64 µg/mL (≈ 270 µM); in [10], greater than 128 µg/mL.
On to `CC(=O)NC[C@H]1CN(c2ccc(N3CCOCC3)c(F)c2)C(=O)O1` [LINEZOLID], for which the MIC in test [1] is 1 µg/mL (≈ 2.96 µM); in test [6] it was 4 µg/mL (≈ 11.9 µM); in test [8], greater than 64 µg/mL; in [9], 16 µg/mL (≈ 47.4 µM); in [10], 4 µg/mL (≈ 11.9 µM).
Turning to `CN[C@H](CC(C)C)C(=O)N[C@H]1C(=O)N[C@@H](CC(N)=O)C(=O)N[C@H]2C(=O)N[C@H]3C(=O)N[C@H](C(=O)N[C@H](C(=O)O)c4cc(O)cc(O)c4-c4cc3ccc4O)[C@H](O)c3ccc(c(Cl)c3)Oc3cc2cc(c3O[C@@H]2O[C@H](CO)[C@@H](O)[C@H](O)[C@H]2O[C@H]2C[C@](C)(N)[C@H](O)[C@H](C)O2)Oc2ccc(cc2Cl)[C@H]1O` [VANCOMYCIN], the minimal inhibitory concentration (MIC) in test [3] was 8 µg/mL (≈ 5.52 µM); in test [4] it was 0.5 µg/mL (≈ 0.345 µM); in [5], 1 µg/mL (≈ 0.69 µM); in test [7], 0.5 µg/mL (≈ 0.345 µM); in test [8] it was greater than 64 µg/mL; in test [9], greater than 64 µg/mL. For the same compound, in test [10], the minimal inhibitory concentration (MIC) came to 8 µg/mL (≈ 5.52 µM).
